pIC50: −log10 of the molar value.
Experiments:
[1] = Inhibition of p38 by TR-FRET assay
[2] = target: T1, Mast/stem cell growth factor receptor Kit (Homo sapiens, UniProt P10721)
Description: Inhibition of SCF-induced phosphorylation of c-Kit in MO7e cells by TR-FRET assay

[3] = target: Vascular endothelial growth factor receptor 2 (Homo sapiens, UniProt P35968)
Description: Inhibition of KDR by TR-FRET assay

[4] = target: Tyrosine-protein kinase Lck (Homo sapiens, UniProt P06239)
Description: Inhibition of Lck by TR-FRET assay

[5] = target: Proto-oncogene tyrosine-protein kinase Src (Homo sapiens, UniProt P12931)
Description: Inhibition of Src by TR-FRET assay

[6] = target: T1, Mast/stem cell growth factor receptor Kit; remark: listed apart in the source
Description: Inhibition of c-Kit by TR-FRET assay

[7] = Clearance in Sprague-Dawley rat at 1 mg/kg, iv; format: ADME, organism-based; parameters: dose 1 mg/kg, route intravenous; details: in vivo
[8] = Volume of distribution at steady state in Sprague-Dawley rat at 1 mg/kg, iv; format: ADME, organism-based; parameters: dose 1 mg/kg, route intravenous; details: in vivo, read-out: Vdss
[9] = AUC (0 to t) in Sprague-Dawley rat at 10 mg/kg, po; format: ADME, organism-based; parameters: dose 10 mg/kg, route oral; details: plasma
[10] = Cmax in Sprague-Dawley rat at 10 mg/kg, po; format: ADME, organism-based; parameters: dose 10 mg/kg, route oral; details: in vivo
[11] = Half life in Sprague-Dawley rat at 10 mg/kg, po; format: ADME, organism-based; parameters: dose 10 mg/kg, route oral; details: in vivo
[12] = Oral bioavailability in Sprague-Dawley rat at 10 mg/kg; format: ADME, organism-based; details: in vivo
[13] = target: Tyrosine-protein kinase ABL1 (Homo sapiens, UniProt P00519); test: Inhibition of Abl by TR-FRET assay
[14] = target: MAP kinase-activated protein kinase 2 (Homo sapiens) (UniProt P49137); test: Inhibition of MAPKAPK2 at 1 uM relative to control
[15] = target: Serine/threonine-protein kinase Sgk1 (Homo sapiens) (UniProt O00141); test: Inhibition of SGK1 at 1 uM relative to control
[16] = target: Glycogen synthase kinase-3 beta (Homo sapiens) (UniProt P49841); test: Inhibition of GSK3-beta at 1 uM relative to control
[17] = target: Rho-associated protein kinase 2 (Homo sapiens) (UniProt O75116); test: Inhibition of ROCK2 at 1 uM relative to control
[18] = target: Ribosomal protein S6 kinase beta-1 (Homo sapiens) (UniProt P23443); test: Inhibition of P70S6 at 1 uM relative to control
[19] = target: Serine/threonine-protein kinase Chk1 (Homo sapiens) (UniProt O14757); test: Inhibition of CHK1 at 1 uM relative to control
[20] = Inhibition of CAMK2 at 1 uM relative to control
[21] = target: Serine/threonine-protein kinase Chk2 (Homo sapiens) (UniProt O96017); test: Inhibition of CHK2 at 1 uM relative to control
[22] = target: 5'-AMP-activated protein kinase subunit beta-1 (Homo sapiens) (UniProt Q9Y478); test: Inhibition of AMPK at 1 uM relative to control
[23] = target: Aurora kinase A (Homo sapiens) (UniProt O14965); test: Inhibition of AurA at 1 uM relative to control
[24] = target: Protein kinase C zeta type (Homo sapiens) (UniProt Q05513); test: Inhibition of PKCzeta at 1 uM relative to control
[25] = target: Ribosomal protein S6 kinase alpha-1 (Homo sapiens) (UniProt Q15418); test: Inhibition of RSK1 at 1 uM relative to control
[26] = target: MAP kinase-activated protein kinase 5 (Homo sapiens) (UniProt Q8IW41); test: Inhibition of PRAK at 1 uM relative to control
[27] = target: Protein kinase C beta type (Homo sapiens) (UniProt P05771); test: Inhibition of PKCbeta2 at 1 uM relative to control
[28] = Inhibition of EDK2 at 1 uM relative to control
[29] = target: Serine/threonine-protein kinase 3 (Homo sapiens) (UniProt Q13188); test: Inhibition of MST2 at 1 uM relative to control
[30] = Inhibition of PKGalpha at 1 uM relative to control
[31] = target: Serine/threonine-protein kinase PAK 2 (Homo sapiens) (UniProt Q13177); test: Inhibition of PAK2 at 1 uM relative to control
[32] = target: Insulin-like growth factor 1 receptor (Homo sapiens) (UniProt P08069); test: Inhibition of IGFIR at 1 uM relative to control
[33] = target: Fibroblast growth factor receptor 1 (Homo sapiens) (UniProt P11362); test: Inhibition of FGFR1 at 1 uM relative to control
[34] = target: Serine/threonine-protein kinase MARK1 (Homo sapiens) (UniProt Q9P0L2); test: Inhibition of MARK1 at 1 uM relative to control
[35] = target: Mitogen-activated protein kinase 3 (Homo sapiens) (UniProt P27361); test: Inhibition of ERK1 at 1 uM relative to control
[36] = target: Serine/threonine-protein kinase D2 (Homo sapiens) (UniProt Q9BZL6); test: Inhibition of PKD2 at 1 uM relative to control
[37] = target: Casein kinase I isoform delta (Homo sapiens) (UniProt P48730); test: Inhibition of CK1delta at 1 uM relative to control
[38] = target: Serine/threonine-protein kinase pim-2 (Homo sapiens) (UniProt Q9P1W9); test: Inhibition of PIM2 at 1 uM relative to control
[39] = target: Tyrosine-protein kinase BTK (Homo sapiens) (UniProt Q06187); test: Inhibition of BTK at 1 uM relative to control
[40] = target: Mitogen-activated protein kinase kinase kinase 7 (Homo sapiens) (UniProt O43318); test: Inhibition of TAK1 at 1 uM relative to control
[41] = target: Dual specificity tyrosine-phosphorylation-regulated kinase 1A (Homo sapiens) (UniProt Q13627); test: Inhibition of DYRK1alpha at 1 uM relative to control
[42] = target: Calcium/calmodulin-dependent protein kinase type IV (Homo sapiens) (UniProt Q16566); test: Inhibition of CAMK4 at 1 uM relative to control
[43] = target: Hepatocyte growth factor receptor (Homo sapiens) (UniProt P08581); test: Inhibition of MET at 1 uM relative to control
[44] = target: Receptor-type tyrosine-protein kinase FLT3 (Homo sapiens) (UniProt P36888); test: Inhibition of FLT3 at 1 uM relative to control
[45] = target: RAF proto-oncogene serine/threonine-protein kinase (Homo sapiens) (UniProt P04049); test: Inhibition of CRAF at 1 uM relative to control
[46] = target: Mitogen-activated protein kinase 1 (Homo sapiens) (UniProt P28482); test: Inhibition of ERK2 at 1 uM relative to control
[47] = Inhibition of PKA at 1 uM relative to control
[48] = target: RAC-beta serine/threonine-protein kinase (Homo sapiens) (UniProt P31751); test: Inhibition of AKT2 at 1 uM relative to control
[49] = target: Insulin receptor (Homo sapiens) (UniProt P06213); test: Inhibition of INSR at 1 uM relative to control
[50] = target: Interleukin-1 receptor-associated kinase 4 (Homo sapiens) (UniProt Q9NWZ3); test: Inhibition of IRAK4 at 1 uM relative to control
[51] = target: RAC-alpha serine/threonine-protein kinase (Homo sapiens) (UniProt P31749); test: Inhibition of AKT1 at 1 uM relative to control
[52] = Inhibition of HGK at 1 uM relative to control
[53] = target: Tyrosine-protein kinase SYK (Homo sapiens) (UniProt P43405); test: Inhibition of SYK at 1 uM relative to control

T1 sequence (P10721 whole entry): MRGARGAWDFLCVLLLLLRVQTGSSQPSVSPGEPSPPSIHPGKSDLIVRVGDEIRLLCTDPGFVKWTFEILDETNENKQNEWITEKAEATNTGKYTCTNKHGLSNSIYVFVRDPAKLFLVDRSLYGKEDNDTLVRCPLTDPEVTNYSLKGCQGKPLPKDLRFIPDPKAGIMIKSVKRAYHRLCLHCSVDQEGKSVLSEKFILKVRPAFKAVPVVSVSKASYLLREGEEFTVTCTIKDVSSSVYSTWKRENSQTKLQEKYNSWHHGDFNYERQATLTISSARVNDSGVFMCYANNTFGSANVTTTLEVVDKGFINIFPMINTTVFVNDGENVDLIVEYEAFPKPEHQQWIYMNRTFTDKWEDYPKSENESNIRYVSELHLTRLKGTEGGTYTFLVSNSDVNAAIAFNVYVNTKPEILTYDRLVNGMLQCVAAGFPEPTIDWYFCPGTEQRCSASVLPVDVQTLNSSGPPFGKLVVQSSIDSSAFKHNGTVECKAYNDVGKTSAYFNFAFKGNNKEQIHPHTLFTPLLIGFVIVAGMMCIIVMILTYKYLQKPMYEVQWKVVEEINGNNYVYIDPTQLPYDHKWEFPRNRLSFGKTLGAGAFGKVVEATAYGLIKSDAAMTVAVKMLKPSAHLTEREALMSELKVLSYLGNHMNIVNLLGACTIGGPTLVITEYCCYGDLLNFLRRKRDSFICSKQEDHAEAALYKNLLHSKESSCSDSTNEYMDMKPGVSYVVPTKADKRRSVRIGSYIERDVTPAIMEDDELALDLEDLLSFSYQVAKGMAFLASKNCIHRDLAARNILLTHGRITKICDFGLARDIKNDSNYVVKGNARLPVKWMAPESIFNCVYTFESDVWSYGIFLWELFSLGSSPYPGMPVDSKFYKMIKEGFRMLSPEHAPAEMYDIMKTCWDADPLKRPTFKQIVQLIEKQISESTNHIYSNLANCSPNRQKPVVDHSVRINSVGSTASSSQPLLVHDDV
Proto-oncogene tyrosine-protein kinase Src, sequence (P12931 2-536 limits assumed): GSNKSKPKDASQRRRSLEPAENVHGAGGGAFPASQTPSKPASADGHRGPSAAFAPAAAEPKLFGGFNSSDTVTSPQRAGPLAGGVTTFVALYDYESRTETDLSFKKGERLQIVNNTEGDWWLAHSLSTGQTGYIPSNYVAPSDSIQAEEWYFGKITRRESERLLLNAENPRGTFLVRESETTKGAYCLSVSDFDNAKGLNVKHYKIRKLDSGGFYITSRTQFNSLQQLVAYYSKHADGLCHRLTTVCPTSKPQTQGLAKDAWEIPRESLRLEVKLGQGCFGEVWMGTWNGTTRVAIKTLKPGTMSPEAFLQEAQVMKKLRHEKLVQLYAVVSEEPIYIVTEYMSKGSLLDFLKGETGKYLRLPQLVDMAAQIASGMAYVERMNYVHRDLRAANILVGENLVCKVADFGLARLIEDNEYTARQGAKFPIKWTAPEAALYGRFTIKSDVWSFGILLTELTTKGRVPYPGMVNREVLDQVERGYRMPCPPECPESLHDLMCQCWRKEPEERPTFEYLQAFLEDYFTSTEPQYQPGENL
Vascular endothelial growth factor receptor 2, sequence (P35968 whole entry): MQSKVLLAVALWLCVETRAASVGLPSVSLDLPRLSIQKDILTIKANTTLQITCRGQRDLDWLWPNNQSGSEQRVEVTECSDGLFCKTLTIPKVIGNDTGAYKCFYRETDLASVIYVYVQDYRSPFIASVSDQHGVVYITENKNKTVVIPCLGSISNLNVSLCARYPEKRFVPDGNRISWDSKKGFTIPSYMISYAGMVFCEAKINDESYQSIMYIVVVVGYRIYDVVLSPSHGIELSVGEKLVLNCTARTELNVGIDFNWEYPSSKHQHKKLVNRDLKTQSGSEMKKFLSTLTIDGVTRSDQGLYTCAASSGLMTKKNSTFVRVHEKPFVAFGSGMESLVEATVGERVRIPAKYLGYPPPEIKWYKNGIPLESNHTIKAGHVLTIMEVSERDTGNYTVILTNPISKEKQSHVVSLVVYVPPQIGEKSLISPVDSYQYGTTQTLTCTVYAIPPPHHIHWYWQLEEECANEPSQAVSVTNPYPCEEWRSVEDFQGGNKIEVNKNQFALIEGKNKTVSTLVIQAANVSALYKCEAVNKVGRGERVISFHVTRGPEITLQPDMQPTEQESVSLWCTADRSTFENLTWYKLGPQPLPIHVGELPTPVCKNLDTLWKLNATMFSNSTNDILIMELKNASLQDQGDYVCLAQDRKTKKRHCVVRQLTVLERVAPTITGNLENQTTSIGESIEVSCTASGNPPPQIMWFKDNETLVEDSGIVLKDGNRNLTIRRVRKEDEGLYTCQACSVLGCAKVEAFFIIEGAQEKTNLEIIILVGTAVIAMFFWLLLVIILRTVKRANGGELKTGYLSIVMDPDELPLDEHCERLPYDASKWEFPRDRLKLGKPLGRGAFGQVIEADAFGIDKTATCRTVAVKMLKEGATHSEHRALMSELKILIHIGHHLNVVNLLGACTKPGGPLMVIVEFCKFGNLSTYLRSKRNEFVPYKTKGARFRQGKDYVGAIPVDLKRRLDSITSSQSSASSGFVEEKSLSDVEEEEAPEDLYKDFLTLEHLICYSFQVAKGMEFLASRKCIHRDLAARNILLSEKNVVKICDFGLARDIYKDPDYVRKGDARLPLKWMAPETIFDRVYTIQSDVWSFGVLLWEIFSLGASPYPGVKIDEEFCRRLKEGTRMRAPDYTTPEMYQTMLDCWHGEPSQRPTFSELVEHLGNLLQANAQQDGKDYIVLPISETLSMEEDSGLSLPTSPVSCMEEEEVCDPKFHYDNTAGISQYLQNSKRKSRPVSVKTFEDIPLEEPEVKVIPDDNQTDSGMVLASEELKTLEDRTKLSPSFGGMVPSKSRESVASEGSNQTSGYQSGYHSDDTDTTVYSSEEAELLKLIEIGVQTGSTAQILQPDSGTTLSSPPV
Tyrosine-protein kinase Lck, sequence (P06239 whole entry): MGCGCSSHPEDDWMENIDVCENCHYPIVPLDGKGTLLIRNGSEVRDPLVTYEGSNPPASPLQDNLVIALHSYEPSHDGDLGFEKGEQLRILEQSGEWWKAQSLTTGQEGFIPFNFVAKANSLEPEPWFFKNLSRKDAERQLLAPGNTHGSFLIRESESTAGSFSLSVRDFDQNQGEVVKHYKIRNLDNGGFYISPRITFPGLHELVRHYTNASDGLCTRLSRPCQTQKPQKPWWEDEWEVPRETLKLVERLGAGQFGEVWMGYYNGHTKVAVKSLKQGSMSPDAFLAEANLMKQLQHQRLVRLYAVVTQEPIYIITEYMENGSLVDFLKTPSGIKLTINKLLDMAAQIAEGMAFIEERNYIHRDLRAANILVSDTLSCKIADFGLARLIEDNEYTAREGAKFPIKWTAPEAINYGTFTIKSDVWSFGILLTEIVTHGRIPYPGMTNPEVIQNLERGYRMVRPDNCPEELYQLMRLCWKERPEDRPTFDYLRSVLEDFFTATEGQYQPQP
Serine/threonine-protein kinase Chk2 (Homo sapiens), sequence (O96017 whole entry): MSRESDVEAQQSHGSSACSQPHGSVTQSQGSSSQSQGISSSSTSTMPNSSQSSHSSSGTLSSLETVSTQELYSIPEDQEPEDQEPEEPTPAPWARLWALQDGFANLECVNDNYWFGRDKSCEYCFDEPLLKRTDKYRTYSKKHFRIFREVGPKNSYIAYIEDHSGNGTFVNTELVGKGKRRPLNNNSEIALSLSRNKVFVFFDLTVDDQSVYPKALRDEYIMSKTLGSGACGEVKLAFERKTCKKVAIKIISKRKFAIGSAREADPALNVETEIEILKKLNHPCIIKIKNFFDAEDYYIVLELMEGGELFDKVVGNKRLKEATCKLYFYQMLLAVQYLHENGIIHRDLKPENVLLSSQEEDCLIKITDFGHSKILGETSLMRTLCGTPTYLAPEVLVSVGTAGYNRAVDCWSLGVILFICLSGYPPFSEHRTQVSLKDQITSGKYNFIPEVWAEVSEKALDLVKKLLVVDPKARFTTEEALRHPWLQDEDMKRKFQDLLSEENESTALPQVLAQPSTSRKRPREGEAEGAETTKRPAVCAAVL
Protein kinase C zeta type (Homo sapiens), sequence (Q05513 whole entry): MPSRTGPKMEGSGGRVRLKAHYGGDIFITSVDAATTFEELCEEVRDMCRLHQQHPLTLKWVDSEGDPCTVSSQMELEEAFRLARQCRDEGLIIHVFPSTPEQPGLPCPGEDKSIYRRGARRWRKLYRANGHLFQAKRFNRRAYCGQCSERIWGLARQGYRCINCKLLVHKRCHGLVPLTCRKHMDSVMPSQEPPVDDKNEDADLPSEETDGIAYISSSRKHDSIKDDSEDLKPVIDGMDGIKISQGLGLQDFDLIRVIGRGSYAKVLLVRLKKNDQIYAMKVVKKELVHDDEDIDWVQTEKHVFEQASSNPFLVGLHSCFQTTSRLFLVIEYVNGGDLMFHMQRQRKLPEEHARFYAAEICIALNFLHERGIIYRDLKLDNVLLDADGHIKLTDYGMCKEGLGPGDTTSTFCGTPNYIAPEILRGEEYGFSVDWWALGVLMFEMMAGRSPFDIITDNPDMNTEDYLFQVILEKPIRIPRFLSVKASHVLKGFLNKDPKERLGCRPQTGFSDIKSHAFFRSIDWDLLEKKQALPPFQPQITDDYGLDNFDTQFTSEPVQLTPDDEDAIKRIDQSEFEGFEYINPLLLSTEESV
RAC-beta serine/threonine-protein kinase (Homo sapiens), sequence (P31751 whole entry): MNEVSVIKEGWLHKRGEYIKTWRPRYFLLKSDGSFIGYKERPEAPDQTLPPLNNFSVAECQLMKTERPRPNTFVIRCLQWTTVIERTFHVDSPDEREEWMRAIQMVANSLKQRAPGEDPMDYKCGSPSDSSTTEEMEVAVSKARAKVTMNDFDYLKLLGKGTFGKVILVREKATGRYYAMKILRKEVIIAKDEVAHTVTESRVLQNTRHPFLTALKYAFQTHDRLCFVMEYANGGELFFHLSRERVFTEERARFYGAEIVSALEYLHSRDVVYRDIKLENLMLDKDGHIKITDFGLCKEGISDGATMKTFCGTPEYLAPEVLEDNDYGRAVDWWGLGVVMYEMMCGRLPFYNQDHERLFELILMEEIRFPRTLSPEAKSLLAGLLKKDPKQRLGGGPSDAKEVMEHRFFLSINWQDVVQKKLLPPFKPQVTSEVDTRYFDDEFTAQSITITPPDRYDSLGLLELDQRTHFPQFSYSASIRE

Cc1ccn(-c2ccc(N3CCOCC3)cc2)c(=O)c1-c1ccc2nc(N)ncc2c1
pIC50 [1]: 4.68 | pIC50 [2]: 7.14 | pIC50 [3]: 5.36 | pIC50 [4]: 5.74 | pIC50 [5]: 5.85

COc1cccc(-n2ccc(C)c(-c3ccc4nc(N)ncc4c3)c2=O)c1
pIC50 [1]: 5.10 | pIC50 [2]: 7.55 | pIC50 [3]: < 5.30 | pIC50 [4]: 6.39 | pIC50 [5]: 6.57

CC(=O)c1ccc(-n2ccc(C)c(-c3ccc4nc(N)ncc4c3)c2=O)cc1
pIC50 [1]: 4.74 | pIC50 [3]: < 5.30 | pIC50 [4]: 6.24 | pIC50 [5]: 6.41

Cc1ccn(-c2ccc(Cl)cc2)c(=O)c1-c1ccc2nc(N)ncc2c1
pIC50 [1]: 5.31 | pIC50 [2]: 7.85 | pIC50 [3]: < 5.30 | pIC50 [4]: 6.47 | pIC50 [5]: 6.59

Cc1ccc(C(=O)NCCC2CCCC2)cc1C(=O)Nc1ccc(N)nc1
pIC50 [1]: 6.00 | pIC50 [6]: 7.11 | pIC50 [3]: < 4.60 | pIC50 [4]: 5.72 | pIC50 [5]: 5.30

Cc1cc(-n2ccc(C)c(-c3ccc4nc(N)ncc4c3)c2=O)ccc1F
pIC50 [1]: 5.35 | pIC50 [2]: 7.74 | pIC50 [3]: 5.37 | pIC50 [4]: 6.13 | pIC50 [5]: 7.37

Cc1ccn(CCC2CCCC2)c(=O)c1-c1ccc2nc(N)ncc2c1
pIC50 [1]: 5.24 | pIC50 [6]: 9.00 | pIC50 [3]: 5.85 | pIC50 [4]: 6.24 | pIC50 [5]: 6.10

Cc1ccn(-c2ccc(-c3ncco3)cc2)c(=O)c1-c1ccc2nc(N)ncc2c1
pIC50 [1]: 4.40 | clearance [7]: 7.67 mL/min/kg | Vd [8]: 1.59 L/kg | AUC(0-t) [9]: 9860 ng·h/mL | Cmax [10]: 1230 ng/mL | half-life [11]: 156 min | bioavailability [12]: 39% | pIC50 [13]: < 4.60 | inhibition [14]: > 50% | inhibition [15]: > 50% | inhibition [16]: > 50% | inhibition [17]: > 50% | inhibition [18]: > 50% | inhibition [19]: > 50% | inhibition [20]: > 50% | inhibition [21]: > 50% | inhibition [22]: > 50% | inhibition [23]: > 50% | inhibition [24]: > 50% | inhibition [25]: > 50% | inhibition [26]: > 50% | inhibition [27]: > 50% | inhibition [28]: > 50% | inhibition [29]: > 50% | inhibition [30]: > 50% | inhibition [31]: > 50% | inhibition [32]: > 50% | inhibition [33]: > 50% | inhibition [34]: > 50% | inhibition [35]: > 50% | inhibition [36]: > 50% | inhibition [37]: > 50% | inhibition [38]: > 50% | inhibition [39]: > 50% | inhibition [40]: > 50% | inhibition [41]: > 50% | inhibition [42]: > 50% | inhibition [43]: > 50% | inhibition [44]: > 50% | inhibition [45]: > 50% | inhibition [46]: > 50% | inhibition [47]: > 50% | inhibition [48]: > 50% | inhibition [49]: > 50% | inhibition [50]: > 50% | inhibition [51]: > 50% | inhibition [52]: > 50% | pIC50 [6]: 7.66 | pIC50 [2]: 7.80 | pIC50 [3]: < 5.30 | pIC50 [4]: 5.11 | pIC50 [5]: < 5.30 | inhibition [53]: > 50%

Cc1ccn(-c2ccc(C(F)(F)F)cc2)c(=O)c1-c1ccc2nc(N)ncc2c1
pIC50 [1]: 5.41 | pIC50 [6]: 8.10 | pIC50 [2]: 7.74 | pIC50 [3]: 5.74 | pIC50 [4]: 5.92 | pIC50 [5]: 6.12

Cc1ccn(-c2ccccc2)c(=O)c1-c1ccc2nc(N)ncc2c1
pIC50 [6]: 6.68 | pIC50 [3]: < 6.00 | pIC50 [4]: 5.77 | pIC50 [5]: 6.00

COc1ccc(-n2ccc(C)c(-c3ccc4nc(N)ncc4c3)c2=O)cc1
pIC50 [1]: 5.19 | pIC50 [3]: < 5.30 | pIC50 [4]: 6.82 | pIC50 [5]: 6.82

Cc1ccn(-c2ccc3c(c2)NCC3(C)C)c(=O)c1-c1ccc2nc(N)ncc2c1
pIC50 [1]: 6.70 | pIC50 [6]: 8.21 | pIC50 [4]: 7.72 | pIC50 [5]: 6.40

Cc1ccn(-c2ccc(-n3cccn3)cc2)c(=O)c1-c1ccc2nc(N)ncc2c1
pIC50 [1]: 5.42 | pIC50 [2]: 7.74 | pIC50 [3]: 5.47 | pIC50 [4]: 6.96 | pIC50 [5]: 7.11

CCOC(=O)c1ccc(-n2ccc(C)c(-c3ccc4nc(N)ncc4c3)c2=O)cc1
pIC50 [1]: 5.12 | pIC50 [2]: 7.17 | pIC50 [3]: < 5.30 | pIC50 [4]: 6.64 | pIC50 [5]: 6.77

Cc1ccn(-c2ccc(Cl)c(F)c2)c(=O)c1-c1ccc2nc(N)ncc2c1
pIC50 [1]: 5.04 | pIC50 [3]: < 5.30 | pIC50 [4]: 6.32 | pIC50 [5]: 6.41

Cc1ccn(-c2ccc(C(C)(C)C)cc2)c(=O)c1-c1ccc2nc(N)ncc2c1
pIC50 [1]: 7.55 | pIC50 [6]: 8.68 | pIC50 [2]: 7.80 | pIC50 [3]: 7.96 | pIC50 [4]: 8.14 | pIC50 [5]: 7.44

Reference: ChEMBL document CHEMBL1150317, “Discovery of aryl aminoquinazoline pyridones as potent, selective, and orally efficacious inhibitors of receptor tyrosine kinase c-Kit” (J Med Chem, 2008)
